Source: US20250313546A1, “NUCLEIC ACID BINDERS” (UNIVERSITY OF STRATHCLYDE, priority 2022, published 2025)
In brackets after ≈: the same amount, converted by molar mass.

What was measured:
[1] = system: Staphylococcus aureus (ATCC 43300); experiment: Antibacterial MIC, broth microdilution (CLSI); format: cell-based; settings: for MIC80: Staphylococcus aureus, ATCC43300, read-out: MIC80 S. aureus; for S. aureus Selectivity Indices, Group: SI, IC50 (μM)/MIC80 (μM), HEK293 cytotoxicity
[2] = system: Enterococcus faecalis (ATCC 51299); experiment: Antibacterial MIC, broth microdilution (CLSI); format: cell-based; settings: for MIC80: Enterococcus faecalis, ATCC51299, read-out: MIC80 E. faecalis; for E. faecalis Selectivity Indices, Group: SI, IC50 (μM)/MIC80 (μM), HEK293 cytotoxicity
[3] = system: Escherichia coli (ATCC 25922); experiment: Antibacterial MIC, broth microdilution (CLSI); format: cell-based; settings: Escherichia coli, ATCC25922; read-out: MIC80 E. coli
T. vaginalis = experiment: Trichomonas resorufin assay; format: cell-based; settings: for T. vaginalis Selectivity Indices, Group: SI, IC50 (μM)/IC50 (μM), HEK293 cytotoxicity; for IC50: Trichomonas vaginalis, read-out: IC50 T. vaginalis
[4] = system: Genomic double stranded DNA (salmon); experiment: Fluorescence intercalator displacement (FID) assay, SYBR-safe probe; settings: 20 μM compound, 30° C., lower % = stronger binding
Procedure: (§1) The ability of compounds of the invention to bind to DNA and RNA was assessed using a fluorescence intercalator displacement assay. Genomic double stranded DNA (salmon) or PolyAU double stranded RNA is treated with probe molecule (Sybr-Safe) that increases its fluorescence upon binding to nucleic acids.
(§2) polyAU RNA (Polyadenylic acid—Polyuridylic acid sodium salt, double-stranded homopolymer, P1537, Merck) or genomic DNA (Deoxyribonucleic acid sodium salt from salmon testes, D1626, Merck) was dissolved in 1 mM pH 7.4 phosphate buffer (containing 0.27 mM potassium chloride, 13.7 mM sodium chloride) to a concentration of 1 mg/mL in, SybrSafe (SYBR® Safe DNA Gel Stain, ×10,000 in DMSO, S33102 Invitrogen) was used as supplied by the manufacturer in DMSO, and compounds of the invention were prepared as 10 mM stocks in DMSO. These stock solutions were diluted appropriately with each other and 1 mM phosphate buffer to give test solutions comprised of 20 μM compound of the invention, 12500-fold dilution of SybrSafe and 3.76 ng/mL RNA/DNA. Control solutions of RNA/DNA and SybrSafe, RNA/DNA, and SybrSafe at these concentrations were also prepared. Test and control solutions were heated to 30° C. and the fluorescence of each solution was measured using the SYBER filter setting of a StepOnePlus using melt analysis mode (StepOne Software v2.3). The reduction of fluorescence due to the binding of the compound of the invention to the RNA/DNA was calculated as a normalised percentage based on the fluorescence measured due to the control with SybrSafe and RNA/DNA as maximum and the control with only SybrSafe as minimum.
(§3) A reduction in normalised % is indicative of probe displacement and thus strong nucleic acid binding.

[5] = system: PolyAU double stranded RNA; experiment: as above; settings: 20 μM compound, 30° C., lower % = stronger binding
Procedure: as §1, §2, §3

Structure (SMILES) | MIC80 [1] [µM] | MIC80 [2] [µM] | MIC80 [3] [µM] | IC50 (T. vaginalis) [µM] | % Normalised Fluorescence with gDNA [4] [%] | % Normalised Fluorescence with polyAU RNA [5] [%] | other results
CCNC(=O)c1cc(NC(=O)c2cc(NC(=O)c3ccc(/C=C/c4cnc5ccccc5c4)cc3)cn2C)cn1C [IVa6, (E)-N-ethyl-1-methyl-4-(1-methyl-4-(4-(2-(quinolin-3-yl)vinyl)benzamido)-1H-pyrrole-2-carboxamido)-1H-pyrrole-2-carboxamide] | < 5 | < 5 | > 100 | 1 to 5 |  |  | E. faecalis Selectivity Indices, Group ([2]; Amides): B (Group B: 0.4 < SI <= 1.5); T. vaginalis Selectivity Indices, Group (T. vaginalis; Amides): B (Group B: 0.25 < SI <= 0.5)
Cn1cc(NC(=O)c2ccc(/C=C/c3cnc4ccccc4c3)cc2)cc1C(=O)Nc1cc(C(=O)N2CCSCC2)n(C)c1 [IVb2, (E)-1-methyl-N-(1-methyl-5-(thiomorpholine-4-carbonyl)-1H-pyrrol-3-yl)-4-(4-(2-(quinolin-3-yl)vinyl)benzamido)-1H-pyrrole-2-carboxamide] | 25 to 100 (≈ 15.1 to 60.5 µg/mL) | > 100 | > 100 | 5 to 50 |  |  | 
Cn1cc(NC(=O)c2ccc(/C=C/c3cnc4ccccc4c3)cc2)cc1C(=O)Nc1cc(C(=O)N2CCCCCC2)n(C)c1 [IVb3, (E)-N-(5-(azepane-1-carbonyl)-1-methyl-1H-pyrrol-3-yl)-1-methyl-4-(4-(2-(quinolin-3-yl)vinyl)benzamido)-1H-pyrrole-2-carboxamide] | 25 to 100 (≈ 15 to 60.1 µg/mL) | > 100 | > 100 | 5 to 50 |  |  | 
[H]/N=C(\CCNC(=O)c1cc(NC(=O)c2cc(NC(=O)c3ccc(C=Cc4ccc5nonc5c4)cc3)cn2C)cn1C)NCCN1CCN(C)CC1 [Ia42, (E)-4-(4-(2-(benzo[c][1,2,5]oxadiazol-5-yl)vinyl)benzamido)-N-(5-((3-imino-3-((2-(4-methylpiperazin-1-yl)ethyl)amino)propyl)carbamoyl)-1-methyl-1H-pyrrol-3-yl)-1-methyl-1H-pyrrole-2-carboxamide] | 5 to 25 (≈ 3.53 to 17.6 µg/mL) | 5 to 25 (≈ 3.53 to 17.6 µg/mL) | > 100 |  | 20 | 4 | 
CN(C)c1ccc(/C=C/c2ccc(C(=O)Nc3c[nH]c(C(=O)Nc4cc(C(=O)NCCN5CCOCC5)n(C)c4)c3)cn2)cc1 [IIIb2, (E)-6-(4-(dimethylamino)styryl)-N-(5-((1-methyl-5-((2-morpholinoethyl)carbamoyl)-1H-pyrrol-3-yl)carbamoyl)-1H-pyrrol-3-yl)nicotinamide] | 5 to 25 (≈ 3.05 to 15.3 µg/mL) | > 100 | > 100 |  | 31 | 85 | 
CN(C)CCNC(=O)c1cc(NC(=O)c2cc(NC(=O)c3ccc(/C=C/c4cnc5ccccc5c4)cc3)cn2C)cn1C [Ref-7, (E)-N-(2-(dimethylamino)ethyl)-1-methyl-4-(1-methyl-4-(4-(2-(quinolin-3-yl)vinyl)benzamido)-1H-pyrrole-2-carboxamido)-1H-pyrrole-2-carboxamide, reference compound] |  |  |  |  |  |  | S. aureus Selectivity Indices, Group ([1]; Alkyl Amidines and NH Pyrroles): A (Group A: SI < 3); S. aureus Selectivity Indices, Group ([1]; Quaternary ammoniums): A (Group A: SI < 2); E. faecalis Selectivity Indices, Group ([2]; Alkyl Amidines and NH Pyrroles): A (Group A: SI < 3); E. faecalis Selectivity Indices, Group ([2]; Quaternary ammoniums): A (Group A: SI < 0.7); T. vaginalis Selectivity Indices, Group (T. vaginalis; Alkyl Amidines and NH Pyrroles): A (Group A: SI < 8); T. vaginalis Selectivity Indices, Group (T. vaginalis; Quaternary ammoniums): A (Group A: SI < 0.8)
Cn1cc(NC(=O)c2cc(NC(=O)c3ccc(/C=C/c4cnc5ccccc5c4)cc3)cn2C)cc1C(=O)NCCCCN1CCCCC1 [IVa11, (E)-1-methyl-4-(1-methyl-4-(4-(2-(quinolin-3-yl)vinyl)benzamido)-1H-pyrrole-2-carboxamido)-N-(4-(piperidin-1-yl)butyl)-1H-pyrrole-2-carboxamide] | 5 to 25 (≈ 3.29 to 16.4 µg/mL) | 5 to 25 (≈ 3.29 to 16.4 µg/mL) | > 100 |  | 42 | 68 | 
CCCCCCCCCCCCCCCCCC[N+](C)(C)CCNC(=O)c1cc(NC(=O)c2cc(NC(=O)c3ccc(/C=C/c4cnc5ccccc5c4)cc3)cn2C)cn1C [Ic17, (E)-N,N-dimethyl-N-(2-(1-methyl-4-(1-methyl-4-(4-(2-(quinolin-3-yl)vinyl)benzamido)-1H-pyrrole-2-carboxamido)-1H-pyrrole-2-carboxamido)ethyl)octadecan-1-aminium] |  |  |  | > 50 |  |  | 
Cn1cc(NC(=O)c2ccc(/C=C/c3cnc4ccccc4c3)cc2)cc1C(=O)Nc1cc(C(=O)N2CCCCC2)n(C)c1 [IVb1, (E)-1-methyl-N-(1-methyl-5-(piperidine-1-carbonyl)-1H-pyrrol-3-yl)-4-(4-(2-(quinolin-3-yl)vinyl)benzamido)-1H-pyrrole-2-carboxamide] | 25 to 100 (≈ 14.7 to 58.7 µg/mL) | > 100 | > 100 | 5 to 50 |  |  | 
Cn1cc(NC(=O)c2cc(NC(=O)c3ccc(/C=C/c4ccc(C(F)(F)F)cc4)cc3)cn2C)cc1C(=O)NCCC(=N)N [Ref-6, reference compound] |  |  |  |  |  |  | S. aureus Selectivity Indices, Group ([1]; Alkyl Amidines and NH Pyrroles): A (Group A: SI < 3); E. faecalis Selectivity Indices, Group ([2]; Alkyl Amidines and NH Pyrroles): A (Group A: SI < 3); T. vaginalis Selectivity Indices, Group (T. vaginalis; Alkyl Amidines and NH Pyrroles): A (Group A: SI < 8)
CCCCCCCCCCCCC[N+](C)(C)CCNC(=O)c1cc(NC(=O)c2cc(NC(=O)c3ccc(/C=C/c4cnc5ccccc5c4)cc3)cn2C)cn1C [Ic12, (E)-N,N-dimethyl-N-(2-(1-methyl-4-(1-methyl-4-(4-(2-(quinolin-3-yl)vinyl)benzamido)-1H-pyrrole-2-carboxamido)-1H-pyrrole-2-carboxamido)ethyl)tridecan-1-aminium] |  |  |  |  | 94 | 38 | 
CCCCCCCCCCCCCCCCC[N+](C)(C)CCNC(=O)c1cc(NC(=O)c2cc(NC(=O)c3ccc(/C=C/c4cnc5ccccc5c4)cc3)cn2C)cn1C [Ic16, (E)-N,N-dimethyl-N-(2-(1-methyl-4-(1-methyl-4-(4-(2-(quinolin-3-yl)vinyl)benzamido)-1H-pyrrole-2-carboxamido)-1H-pyrrole-2-carboxamido)ethyl)heptadecan-1-aminium] |  |  |  |  | 98 | 64 | 
[H]/N=C(\CCNC(=O)c1cc(NC(=O)c2cc(NC(=O)c3ccc(C=Cc4ccc(N(C)C)cc4)nc3)cn2C)cn1C)NCCN1CCSCC1 [Ia52, (E)-6-(4-(dimethylamino)styryl)-N-(5-((5-((3-imino-3-((2-thiomorpholinoethyl)amino)propyl)carbamoyl)-1-methyl-1H-pyrrol-3-yl)carbamoyl)-1-methyl-1H-pyrrol-3-yl)nicotinamide] | 5 to 25 (≈ 3.55 to 17.8 µg/mL) | > 100 | > 100 |  |  |  | 
Cn1cc(NC(=O)c2cc(NC(=O)c3ccc(/C=C/c4cnc5ccccc5c4)cc3)cn2C)cc1C(=O)NCCC(=N)NCCN1CCSCC1 [Ia47, (E)-N-(3-imino-3-((2-thiomorpholinoethyl)amino)propyl)-1-methyl-4-(1-methyl-4-(4-(2-(quinolin-3-yl)vinyl)benzamido)-1H-pyrrole-2-carboxamido)-1H-pyrrole-2-carboxamide] | 5 to 25 (≈ 3.59 to 17.9 µg/mL) | > 100 | > 100 |  |  |  | 
CCCNC(=O)c1cc(NC(=O)c2cc(NC(=O)c3ccc(/C=C/c4cnc5ccccc5c4)cc3)cn2C)cn1C [IVa17, (E)-1-methyl-4-(1-methyl-4-(4-(2-(quinolin-3-yl)vinyl)benzamido)-1H-pyrrole-2-carboxamido)-N-propyl-1H-pyrrole-2-carboxamide] | < 5 | < 5 | > 100 |  |  |  | 
